Measured values: patent US10286034B2, “Uses of bremelanotide in therapy for female sexual dysfunction” (Palatin Technologies, Inc., priority 2012, dated 2019)

Columns and labels:
[1] = Example 1: plasma pharmacokinetics after in-clinic subcutaneous dose; assay type: in vivo, human
Method: Ambulatory blood pressure monitoring was conducted following both placebo and randomized treatment group in-clinic administrations. Three periods of ambulatory blood pressure monitoring were included, the first period was from before to 24 hours after a single, in-clinic dose of placebo (to establish a baseline); the second and third periods occurred from before to 24 hours after each of 2 single, in-clinic doses of double-blind treatment, administered within 14 days of each other. Blood samples for pharmacokinetic analysis were collected before and at 0.5, 1.0, and 2.0 hours after each in-clinic bremelanotide single-dose treatment (double-blind only), to permit analysis of concentration-response relationships.
Mean pharmacokinetic parameters were determined by bremelanotide dose and visit, including Cmax determinations (the highest ng/mL concentration at either 0.5 or 1 hour post administration) and AUC determinations at two hours and, for a subset of subjects in each group, at four hours.
The Cmax for the mean curve was calculated by averaging the concentrations at each time point (0.5, 1, 2 and 4 hours), and this is shown in FIG. 3.

[2] = test system: premenopausal females with FSAD and/or HSDD; experiment: Example 1: placebo-controlled at-home trial of subcutaneous bremelanotide, efficacy (SSEs, FSFI, FSDS-DAO); assay type: in vivo, human
Method: A multi-centered, placebo-controlled, randomized, parallel group trial with fixed dose levels and designed to identify appropriate doses of bremelanotide administered by subcutaneous injection in premenopausal females with FSAD and/or HSDD, under the conditions of home use, was conducted. […] Subjects who continued to qualify for the trial then received 2 single in-clinic doses of randomized treatment (double-blind; approximately one week apart), followed by 12 weeks of double-blind treatment at home (subjects self-administered treatment as needed). Subjects were randomized (1:1:1:1) to one of four study treatment groups (placebo or doses with 0.75, 1.25, or 1.75 mg net weight bremelanotide). Randomization occurred immediately prior to the first in-clinic dose of double-blind treatment. Study drug and placebo was provided as pre-filled syringes in 0.3 mL volume, with subjects instructed on self-administration into the anterior thigh or abdomen. Enrolled subjects were premenopausal women who met the diagnostic criteria for […], or mixed […], utilizing a diagnostic screening guide including categorization of the sexual dysfunction as both acquired (vs. lifelong) and generalized (vs. situational). Subjects enrolled had previously been sexually “functional;” that is, experienced sexual arousal during sexual activity and/or a normal level of desire at some point in the past for a period of at least 2 years. […] Enrolled subjects were provided with an electronic diary system (eDiary) with instructions to complete an FSEP-R questionnaire with each sexual encounter. At selected in-clinic visits, subjects completed other assessment questionnaires, including […]-DAO, […] and WITS-9. In addition, various vital sign measures were conducted and blood and urine samples collected at selected in-clinic visits. […] The measurement period was defined as the number of events during the last four weeks of treatment minus the number of events during the baseline period, with outcomes reported for pooled results of women taking the two highest bremelanotide dose levels versus placebo. […] The FSFI is a 19-item questionnaire which provides for an additional measurement of changes over a longer recall period. • FSFI total score improvement (mean change of 3.55 vs. 1.88, p=0.0017) • Reduced associated distress related to sexual dysfunction, as measured by the Female Sexual Distress Scale-DAO (FSDS-DAO). The FSDS-DAO 15-item questionnaire is designed to assess and quantify the change in personal distress associated with […]-DAO total score improvement (mean change of -11.1 vs. -6.8, p=0.036).

[3] = pooled 1.25 mg and 1.75 mg doses, baseline to end of study

CCCC[C@H](NC(C)=O)C(=O)N[C@H]1CC(=O)NCCCC[C@@H](C(=O)O)NC(=O)[C@H](Cc2c[nH]c3ccccc23)NC(=O)[C@H](CCCNC(=N)N)NC(=O)[C@@H](Cc2ccccc2)NC(=O)[C@H](Cc2c[nH]cn2)NC1=O [bremelanotide, Ac-Nle-cyclo(-Asp-His-D-Phe-Arg-Trp-Lys)-OH]
AUC(0-2 h) % CV ([1]; 0.75 mg SC, Visit 5): 24% | AUC(0-2 h) Max ([1]; 0.75 mg SC, Visit 5): 85 ng·h/mL | AUC(0-2 h) Mean ([1]; 0.75 mg SC, Visit 5): 53 ng·h/mL | AUC(0-2 h) Median ([1]; 0.75 mg SC, Visit 5): 52 ng·h/mL | AUC(0-2 h) Min ([1]; 0.75 mg SC, Visit 5): 25 ng·h/mL | AUC(0-4 h) % CV ([1]; 0.75 mg SC, Visit 5): 23% | AUC(0-4 h) Max ([1]; 0.75 mg SC, Visit 5): 126 ng·h/mL | AUC(0-4 h) Mean ([1]; 0.75 mg SC, Visit 5): 84 ng·h/mL | AUC(0-4 h) Median ([1]; 0.75 mg SC, Visit 5): 80 ng·h/mL | AUC(0-4 h) Min ([1]; 0.75 mg SC, Visit 5): 50 ng·h/mL | Cmax % CV ([1]; 0.75 mg SC, Visit 5): 27% | Cmax Max ([1]; 0.75 mg SC, Visit 5): 60 ng/mL | Cmax Median ([1]; 0.75 mg SC, Visit 5): 36 ng/mL | Cmax Min ([1]; 0.75 mg SC, Visit 5): 17 ng/mL | AUC(0-2 h) % CV ([1]; 0.75 mg SC, Visit 7): 24% | AUC(0-2 h) Max ([1]; 0.75 mg SC, Visit 7): 92 ng·h/mL | AUC(0-2 h) Mean ([1]; 0.75 mg SC, Visit 7): 53 ng·h/mL | AUC(0-2 h) Median ([1]; 0.75 mg SC, Visit 7): 52 ng·h/mL | AUC(0-2 h) Min ([1]; 0.75 mg SC, Visit 7): 26 ng·h/mL | AUC(0-4 h) % CV ([1]; 0.75 mg SC, Visit 7): 20% | AUC(0-4 h) Max ([1]; 0.75 mg SC, Visit 7): 120 ng·h/mL | AUC(0-4 h) Mean ([1]; 0.75 mg SC, Visit 7): 80 ng·h/mL | AUC(0-4 h) Median ([1]; 0.75 mg SC, Visit 7): 79 ng·h/mL | AUC(0-4 h) Min ([1]; 0.75 mg SC, Visit 7): 51 ng·h/mL | Cmax % CV ([1]; 0.75 mg SC, Visit 7): 27% | Cmax Max ([1]; 0.75 mg SC, Visit 7): 78 ng/mL | Cmax Mean ([1]; 0.75 mg SC, Visit 7): 38 ng/mL | Cmax Min ([1]; 0.75 mg SC, Visit 7): 20 ng/mL | AUC(0-2 h) % CV ([1]; 1.25 mg SC, Visit 5): 25% | AUC(0-2 h) Max ([1]; 1.25 mg SC, Visit 5): 148 ng·h/mL | AUC(0-2 h) Mean ([1]; 1.25 mg SC, Visit 5): 86 ng·h/mL | AUC(0-2 h) Median ([1]; 1.25 mg SC, Visit 5): 81 ng·h/mL | AUC(0-2 h) Min ([1]; 1.25 mg SC, Visit 5): 42 ng·h/mL | AUC(0-4 h) % CV ([1]; 1.25 mg SC, Visit 5): 20% | AUC(0-4 h) Max ([1]; 1.25 mg SC, Visit 5): 187 ng·h/mL | AUC(0-4 h) Median ([1]; 1.25 mg SC, Visit 5): 136 ng·h/mL | AUC(0-4 h) Min ([1]; 1.25 mg SC, Visit 5): 86 ng·h/mL | Cmax % CV ([1]; 1.25 mg SC, Visit 5): 31% | Cmax Max ([1]; 1.25 mg SC, Visit 5): 126 ng/mL | Cmax Mean ([1]; 1.25 mg SC, Visit 5): 60 ng/mL | Cmax Min ([1]; 1.25 mg SC, Visit 5): 29 ng/mL | AUC(0-2 h) % CV ([1]; 1.25 mg SC, Visit 7): 25% | AUC(0-2 h) Max ([1]; 1.25 mg SC, Visit 7): 144 ng·h/mL | AUC(0-2 h) Mean ([1]; 1.25 mg SC, Visit 7): 84 ng·h/mL | AUC(0-2 h) Median ([1]; 1.25 mg SC, Visit 7): 84 ng·h/mL | AUC(0-2 h) Min ([1]; 1.25 mg SC, Visit 7): 24 ng·h/mL | AUC(0-4 h) % CV ([1]; 1.25 mg SC, Visit 7): 25% | AUC(0-4 h) Max ([1]; 1.25 mg SC, Visit 7): 199 ng·h/mL | AUC(0-4 h) Mean ([1]; 1.25 mg SC, Visit 7): 142 ng·h/mL | AUC(0-4 h) Median ([1]; 1.25 mg SC, Visit 7): 144 ng·h/mL | AUC(0-4 h) Min ([1]; 1.25 mg SC, Visit 7): 39 ng·h/mL | Cmax % CV ([1]; 1.25 mg SC, Visit 7): 33% | Cmax Max ([1]; 1.25 mg SC, Visit 7): 150 ng/mL | Cmax Mean ([1]; 1.25 mg SC, Visit 7): 60 ng/mL | Cmax Median ([1]; 1.25 mg SC, Visit 7): 60 ng/mL | Cmax Min ([1]; 1.25 mg SC, Visit 7): 18 ng/mL | AUC(0-2 h) % CV ([1]; 1.75 mg SC, Visit 5): 23% | AUC(0-2 h) Max ([1]; 1.75 mg SC, Visit 5): 171 ng·h/mL | AUC(0-2 h) Min ([1]; 1.75 mg SC, Visit 5): 17 ng·h/mL | AUC(0-4 h) % CV ([1]; 1.75 mg SC, Visit 5): 29% | AUC(0-4 h) Max ([1]; 1.75 mg SC, Visit 5): 289 ng·h/mL | AUC(0-4 h) Median ([1]; 1.75 mg SC, Visit 5): 179 ng·h/mL | AUC(0-4 h) Min ([1]; 1.75 mg SC, Visit 5): 25 ng·h/mL | Cmax % CV ([1]; 1.75 mg SC, Visit 5): 25% | Cmax Mean ([1]; 1.75 mg SC, Visit 5): 77 ng/mL | Cmax Median ([1]; 1.75 mg SC, Visit 5): 78 ng/mL | AUC(0-2 h) % CV ([1]; 1.75 mg SC, Visit 7): 25% | AUC(0-2 h) Max ([1]; 1.75 mg SC, Visit 7): 176 ng·h/mL | AUC(0-2 h) Median ([1]; 1.75 mg SC, Visit 7): 111 ng·h/mL | AUC(0-2 h) Min ([1]; 1.75 mg SC, Visit 7): 28 ng·h/mL | AUC(0-4 h) % CV ([1]; 1.75 mg SC, Visit 7): 25% | AUC(0-4 h) Max ([1]; 1.75 mg SC, Visit 7): 276 ng·h/mL | AUC(0-4 h) Mean ([1]; 1.75 mg SC, Visit 7): 184 ng·h/mL | AUC(0-4 h) Median ([1]; 1.75 mg SC, Visit 7): 180 ng·h/mL | AUC(0-4 h) Min ([1]; 1.75 mg SC, Visit 7): 72 ng·h/mL | Cmax % CV ([1]; 1.75 mg SC, Visit 7): 25% | Cmax Max ([1]; 1.75 mg SC, Visit 7): 127 ng/mL | Cmax Mean ([1]; 1.75 mg SC, Visit 7): 78 ng/mL | Cmax Median ([1]; 1.75 mg SC, Visit 7): 77 ng/mL | Cmax Min ([1]; 1.75 mg SC, Visit 7): 27 ng/mL | Cmax % CV ([1]; 1.75 mg subcutaneous dose): 25% | median Cmax ([1]; 1.75 mg subcutaneous dose): 78 ng/mL | efficacy on all key endpoints in HSDD-only and mixed HSDD/FSAD subgroups ([2]; 1.25 mg, 1.75 mg, and/or 1.25/1.75 mg pooled, exploratory analyses): statistically significant efficacy or a clinically significant trend versus placebo | Satisfying Sexual Events (SSEs), mean at baseline ([2]; pooled 1.25 mg and 1.75 mg doses): 1.6 | FSDS-DAO total score improvement, mean change [2, 3]: −11.1 | FSFI total score improvement, mean change [2, 3]: 3.55 | increase in SSEs [2, 3]: 50% | Satisfying Sexual Events (SSEs), mean at end of study ([2]; pooled 1.25 mg and 1.75 mg doses, last four weeks of treatment): 2.4 | most optimal dose for efficacy ([2]; subcutaneous): 1.75 mg | women with end-of-study FSFI and FSDS-DAO total score levels above 26.5 and 18 ([2]; versus placebo, exploratory analysis): higher percentage of women
